These results are taken from US20240059689A1, “PURINE DERIVATIVES AS ANTICANCER AGENTS” (Tango Therapeutics, Inc., priority 2021, published 2024).

Where two headings read alike, the source gives them in different places.

In one experiment the test system is HCC1954. Description: Viability assay, BRCA1 WT cell line HCC1954. Type of experiment: cell-based. To be noted: read-out: HCC1954 rel IC50. An excerpt:
(§1) Table 1 also indicates IC50 values in a viability assay for a non-isogenic pair of BRCA1 mutant (column 5-MDA-MB-436) and BRCA1 WT (column 6—HCC1954) cell lines. These values indicate the effect of treatment with compound on cell survival.

A further experiment has as its system monoubiquitinated PCNA. In words: AlphaLISA assay measuring monoubiquitinated PCNA in MDA-MB-436. Type of experiment: cell-based. To be noted: read-out: Alpha Lisa IC50. An excerpt:
Table 1 also indicates IC50 values for exemplary compounds in an AlphaLISA assay measuring monoubiquitinated PCNA in a BRCA1 mutant cell line (MDA-MB-436; column 7).
On the technique in general: Bead proximity is the source of the signal in Alpha formats.

Another experiment has as its system MDA-MB-436. In words: Viability assay, BRCA1 mutant cell line MDA-MB-436. Type of experiment: cell-based. Particulars: BRCA1 mutant MDA-MB-436, read-out: MDA-MB-436 rel IC50.
Text: as §1

The next experiment deals with USP1-UAF1 (Homo sapiens, UniProt O94782). Description: Ubiquitin Rhodamine assay of USP1-UAF1 activity. The experiment is classed as biochemical. Here is the method:
Certain compounds of the disclosure were assessed for USP1-UAF1 activity in a Ubiquitin Rhodamine assay as described in Biology Example 1.

Where [1] appears, read: Homo sapiens, HCC1954, viability.
[2] abbreviates: Homo sapiens, MDA-MB-436, monoubiquitinated PCNA.
The mark [3] stands for this setting: Homo sapiens, MDA-MB-436, viability.

Chain of USP1-UAF1 (O94782 whole entry): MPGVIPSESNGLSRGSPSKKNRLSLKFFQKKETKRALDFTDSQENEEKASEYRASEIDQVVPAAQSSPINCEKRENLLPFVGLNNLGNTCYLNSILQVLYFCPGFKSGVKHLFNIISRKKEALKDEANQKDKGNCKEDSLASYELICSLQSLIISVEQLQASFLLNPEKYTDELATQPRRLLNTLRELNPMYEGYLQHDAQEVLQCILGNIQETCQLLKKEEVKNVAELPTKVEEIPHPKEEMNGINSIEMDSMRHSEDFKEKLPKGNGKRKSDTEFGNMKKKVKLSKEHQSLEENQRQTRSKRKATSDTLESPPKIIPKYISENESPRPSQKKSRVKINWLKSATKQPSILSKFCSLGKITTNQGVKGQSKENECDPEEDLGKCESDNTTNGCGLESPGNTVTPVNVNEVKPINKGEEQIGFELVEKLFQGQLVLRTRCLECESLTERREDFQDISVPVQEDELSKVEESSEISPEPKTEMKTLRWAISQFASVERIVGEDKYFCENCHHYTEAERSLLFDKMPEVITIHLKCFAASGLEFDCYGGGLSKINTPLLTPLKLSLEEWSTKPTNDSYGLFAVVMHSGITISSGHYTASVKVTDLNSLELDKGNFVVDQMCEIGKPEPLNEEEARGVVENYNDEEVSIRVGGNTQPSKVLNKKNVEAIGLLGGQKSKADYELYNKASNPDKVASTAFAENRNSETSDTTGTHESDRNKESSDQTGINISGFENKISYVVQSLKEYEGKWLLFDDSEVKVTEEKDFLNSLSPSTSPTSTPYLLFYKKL
Chain of USP1-UAF1 (Q8TAF3 whole entry partner): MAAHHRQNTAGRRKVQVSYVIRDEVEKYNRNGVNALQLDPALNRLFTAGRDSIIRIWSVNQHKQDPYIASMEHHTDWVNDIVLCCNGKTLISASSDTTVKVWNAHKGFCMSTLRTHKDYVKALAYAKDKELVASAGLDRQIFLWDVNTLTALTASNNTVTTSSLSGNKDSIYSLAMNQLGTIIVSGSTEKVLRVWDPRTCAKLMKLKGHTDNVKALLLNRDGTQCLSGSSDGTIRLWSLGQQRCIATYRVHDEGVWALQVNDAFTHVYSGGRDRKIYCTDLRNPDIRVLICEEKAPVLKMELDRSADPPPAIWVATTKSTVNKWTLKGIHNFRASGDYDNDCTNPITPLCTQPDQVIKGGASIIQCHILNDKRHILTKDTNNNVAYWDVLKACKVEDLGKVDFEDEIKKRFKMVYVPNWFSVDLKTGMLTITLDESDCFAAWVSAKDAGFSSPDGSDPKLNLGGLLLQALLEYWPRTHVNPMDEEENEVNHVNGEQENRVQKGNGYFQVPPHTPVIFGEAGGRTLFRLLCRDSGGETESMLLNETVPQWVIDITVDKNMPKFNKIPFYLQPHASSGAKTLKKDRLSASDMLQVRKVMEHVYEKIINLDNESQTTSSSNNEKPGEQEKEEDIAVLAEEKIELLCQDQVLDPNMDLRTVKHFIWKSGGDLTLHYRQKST

Consider `Cc1nc(-c2ccccc2-c2ccccc2Cl)nc2c1n(C)c(=N)n2Cc1ccc(-c2nc(C(F)(F)F)cn2C)cc1` (single isomer, unassigned) [Example A-15c, 2-(2′-chloro-[1,1′-biphenyl]-2-yl)-6,7-dimethyl-9-(4-(1-methyl-4-(trifluoromethyl)-1H-imidazol-2-yl)benzyl)-7,9-dihydro-8H-purin-8-imine], for which the IC50 (as a rule, the concentration at which inhibition is half-maximal) with HCC1954 (setting [1]) was 250 to 10000 nM; in the experiment on monoubiquitinated PCNA (setting [2]), below 100 nM; in the experiment with MDA-MB-436 (setting [3]) it was 100 to 250 nM; against USP1-UAF1, below 30 nM.
With `Cc1cccc(-c2ncc3c(n2)n(Cc2ccc(-c4nc(C(F)(F)F)cn4C)cc2)c(=N)n3C)c1C(C)C` [Example T-002, 2-(2-isopropyl-3-methyl-phenyl)-7-methyl-9-[[4-[1-methyl-4-(trifluoromethyl)imidazol-2-yl]phenyl]methyl]purin-8-imine], the IC50 in the experiment with HCC1954 (setting [1]) lay in the range of 250 to 10000 nM; in the experiment on monoubiquitinated PCNA (setting [2]), 250 to 10000 nM; with MDA-MB-436 (setting [3]) it was 100 to 250 nM; against USP1-UAF1 it was 30 to 100 nM.
For the molecule `CCOc1cc(C(F)(F)F)nn1-c1ccc(Cn2c(=N)n(CC(F)(F)F)c3cnc(-c4c(C(F)(F)F)cnn4C)nc32)cc1` [Example T-138, 9-[[4-[5-ethoxy-3-(trifluoromethyl)pyrazol-1-yl]phenyl]methyl]-2-[2-methyl-4-(trifluoromethyl)pyrazol-3-yl]-7-(2,2,2-trifluoroethyl)purin-8-imine], the IC50 in the experiment with HCC1954 (setting [1]) was 250 to 10000 nM; in the experiment on monoubiquitinated PCNA (setting [2]), 100 to 250 nM; in the experiment with MDA-MB-436 (setting [3]), 100 to 250 nM; at USP1-UAF1, 30 to 100 nM.
For `Cn1cc(C(F)(F)F)nc1-c1ccc(Cn2c(=N)n(C)c3cnc(-c4cccnc4OCC(F)(F)F)nc32)cc1` [Example T-079, 7-methyl-9-[[4-[1-methyl-4-(trifluoromethyl)imidazol-2-yl]phenyl]methyl]-2-[2-(2,2,2-trifluoroethoxy)-3-pyridyl]purin-8-imine], the IC50 in the experiment on HCC1954 (setting [1]) was at least 10000 nM; with monoubiquitinated PCNA (setting [2]) it was 100 to 250 nM; with MDA-MB-436 (setting [3]), 250 to 10000 nM; at USP1-UAF1, 100 to 10000 nM.
The corresponding values for `Cc1cc(Cn2c(=N)n(C)c3cnc(-c4ccccc4C(F)(F)F)nc32)ccc1-c1nc(C(F)(F)F)c[nH]1` [Example T-092] are 250 to 10000 nM, 250 to 10000 nM, 250 to 10000 nM and 30 to 100 nM.
With `CC(C)c1cc(F)ccc1-c1ncc2c(n1)n(Cc1ccc(-c3nc(C(F)(F)F)cn3C)cc1)c(=N)n2C` [Example B-10, 2-(4-fluoro-2-isopropylphenyl)-7-methyl-9-(4-(1-methyl-4-(trifluoromethyl)-1H-imidazol-2-yl)benzyl)-7,9-dihydro-8H-purin-8-imine], the IC50 in the experiment on HCC1954 (setting [1]) is 250 to 10000 nM; in the experiment on monoubiquitinated PCNA (setting [2]), 100 to 250 nM; with MDA-MB-436 (setting [3]) it was 100 to 250 nM; against USP1-UAF1, below 30 nM.
On to `CC(C)c1ccccc1-c1nc(C2CC2)c2c(n1)n(Cc1ccc(-c3nc(C(F)(F)F)cn3C)cc1)c(=N)n2C` [Example A-23, 6-cyclopropyl-2-(2-isopropylphenyl)-7-methyl-9-(4-(1-methyl-4-(trifluoromethyl)-1H-imidazol-2-yl)benzyl)-7,9-dihydro-8H-purin-8-imine], for which the IC50 in the experiment on HCC1954 (setting [1]) was 250 to 10000 nM; in the experiment with monoubiquitinated PCNA (setting [2]) it was 250 to 10000 nM; with MDA-MB-436 (setting [3]) it was 250 to 10000 nM; against USP1-UAF1, below 30 nM.
For `CC(C)c1ccccc1-c1ncc2c(n1)n(C(C)c1ccc(-c3nc(Cl)cn3C)cc1)c(=N)n2C` (single isomer, unassigned) [Example A-9d, 9-(1-(4-(4-chloro-1-methyl-1H-imidazol-2-yl)phenyl)ethyl)-2-(2-isopropylphenyl)-7-methyl-7,9-dihydro-8H-purin-8-imine], the IC50 is 250 to 10000 nM in the experiment on HCC1954 (viability), below 100 nM in the experiment on monoubiquitinated PCNA (monoubiquitinated PCNA), below 100 nM in the experiment on MDA-MB-436 (viability) and below 30 nM against USP1-UAF1.
As to `COc1nccc(C2CC2)c1-c1ncc2c(n1)n(Cc1ccc(-c3nc(C(F)(F)F)cn3C)cc1)c(=N)n2CC(F)(F)F` [Example T-141, 2-(4-cyclopropyl-2-methoxy-3-pyridyl)-9-[[4-[1-methyl-4-(trifluoromethyl)imidazol-2-yl]phenyl]methyl]-7-(2,2,2-trifluoroethyl)purin-8-imine], the IC50 with HCC1954 (setting [1]) was at least 10000 nM; with monoubiquitinated PCNA (setting [2]), 100 to 250 nM; in the experiment on MDA-MB-436 (setting [3]), 100 to 250 nM; on USP1-UAF1 it was 100 to 10000 nM.
Consider `Cn1cc(C(F)(F)F)nc1-c1ccc(Cn2c(=N)n(C)c3cnc(-c4ccccc4OC(F)(F)F)nc32)cc1` [Example T-033, 7-methyl-9-[[4-[1-methyl-4-(trifluoromethyl)imidazol-2-yl]phenyl]methyl]-2-[2-(trifluoromethoxy)phenyl]purin-8-imine], for which the IC50 in the experiment on HCC1954 (setting [1]) is 250 to 10000 nM; with monoubiquitinated PCNA (setting [2]), below 100 nM; in the experiment on MDA-MB-436 (setting [3]), below 100 nM; at USP1-UAF1 it was below 30 nM.
For `COc1ccnc(C2CC2)c1-c1ncc2c(n1)n(Cc1ccc(-n3nc(C(F)(F)F)cc3OC)cc1)c(=N)n2CC(F)(F)F` [Example T-136, 2-(2-cyclopropyl-4-methoxy-3-pyridyl)-9-[[4-[5-methoxy-3-(trifluoromethyl)pyrazol-1-yl]phenyl]methyl]-7-(2,2,2-trifluoroethyl)purin-8-imine], the IC50 in the experiment on HCC1954 (setting [1]) was at least 10000 nM; in the experiment on monoubiquitinated PCNA (setting [2]), 100 to 250 nM; with MDA-MB-436 (setting [3]) it was 100 to 250 nM; on USP1-UAF1, 30 to 100 nM.
For `COc1ncnc(C2CC2)c1-c1ncc2c(n1)n(Cc1ccc(-c3nc(C(F)(F)F)cn3C3CCC3)cc1)c(=N)n2CC(F)(F)F` [Example T-120, 9-[[4-[1-cyclobutyl-4-(trifluoromethyl)imidazol-2-yl]phenyl]methyl]-2-(4-cyclopropyl-6-methoxy-pyrimidin-5-yl)-7-(2,2,2-trifluoroethyl)purin-8-imine], the IC50 was at least 10000 nM in the experiment on HCC1954 (setting [1]), below 100 nM in the experiment with monoubiquitinated PCNA (setting [2]), below 100 nM in the experiment on MDA-MB-436 (setting [3]) and below 30 nM on USP1-UAF1.
In the case of `CCOc1cc(C(F)(F)F)nn1-c1ccc(Cn2c(=N)n(C)c3cnc(-c4ccccc4C(C)C)nc32)cc1` [Example T-032], the IC50 is 250 to 10000 nM in the experiment on HCC1954 (setting [1]), 100 to 250 nM with monoubiquitinated PCNA (setting [2]), below 100 nM in the experiment on MDA-MB-436 (setting [3]) and below 30 nM against USP1-UAF1.
For the molecule `COCCn1cc(C(F)(F)F)nc1-c1ccc(Cn2c(=N)n(C)c3cnc(-c4ccccc4C(F)(F)F)nc32)cc1` [Example T-066], the IC50 in the experiment on HCC1954 (setting [1]) was at least 10000 nM; in the experiment on monoubiquitinated PCNA (setting [2]), 250 to 10000 nM; in the experiment on MDA-MB-436 (setting [3]) it was 250 to 10000 nM; against USP1-UAF1, 100 to 10000 nM.
Take `CC(C)c1ccccc1-c1ncc2c(n1)n(C1(c3ccc(-c4nc(C(F)(F)F)cn4C)cc3)CC1)c(=N)n2C` [Example T-003, 2-(2-isopropylphenyl)-7-methyl-9-[1-[4-[1-methyl-4-(trifluoromethyl)imidazol-2-yl]phenyl]cyclopropyl]purin-8-imine]: the IC50 is 250 to 10000 nM with HCC1954 (setting [1]), below 100 nM in the experiment with monoubiquitinated PCNA (setting [2]), below 100 nM in the experiment on MDA-MB-436 (setting [3]) and below 30 nM against USP1-UAF1.
`COc1ncnc(C(F)(F)F)c1-c1ncc2c(n1)n(Cc1ccc(-c3nc(C(F)(F)F)cn3C)cc1)c(=N)n2C` [Example T-038, 2-[4-methoxy-6-(trifluoromethyl)pyrimidin-5-yl]-7-methyl-9-[[4-[1-methyl-4-(trifluoromethyl)imidazol-2-yl]phenyl]methyl]purin-8-imine]: the IC50 in the experiment on HCC1954 (setting [1]) is at least 10000 nM; in the experiment with monoubiquitinated PCNA (setting [2]) it was below 100 nM; in the experiment with MDA-MB-436 (setting [3]), 100 to 250 nM; against USP1-UAF1, 30 to 100 nM.
For `Cn1cc(C(F)(F)F)nc1-c1ccc(Cn2c(=N)n(C)c3cnc(-c4c(Cl)cccc4Cl)nc32)cc1` [Example B-5, 2-(2,6-dichlorophenyl)-7-methyl-9-(4-(1-methyl-4-(trifluoromethyl)-1H-imidazol-2-yl)benzyl)-7,9-dihydro-8H-purin-8-imine] the same measures were 250 to 10000 nM, 100 to 250 nM, 100 to 250 nM and below 30 nM.
The corresponding values for `CC(C)c1c(F)cccc1-c1ncc2c(n1)n(Cc1ccc(-c3nc(C(F)(F)F)cn3C)cc1)c(=N)n2C` [Example B-9, 2-(3-fluoro-2-isopropylphenyl)-7-methyl-9-(4-(1-methyl-4-(trifluoromethyl)-1H-imidazol-2-yl)benzyl)-7,9-dihydro-8H-purin-8-imine] are 250 to 10000 nM, below 100 nM, below 100 nM and below 30 nM.
As for `C=C(C)c1ccc(F)cc1-c1nc(C)c2c(n1)n(Cc1ccc(-c3nc(C(F)(F)F)cn3C)cc1)c(=N)n2C` [Example A-42, 2-(5-fluoro-2-(prop-1-en-2-yl)phenyl)-6,7-dimethyl-9-(4-(1-methyl-4-(trifluoromethyl)-1H-imidazol-2-yl)benzyl)-7,9-dihydro-8H-purin-8-imine], the IC50 with HCC1954 (setting [1]) lay within 250 to 10000 nM; in the experiment on monoubiquitinated PCNA (setting [2]), 100 to 250 nM; with MDA-MB-436 (setting [3]), 250 to 10000 nM; on USP1-UAF1, 30 to 100 nM.
On to `CC(C)c1ccccc1-c1ncc2c(n1)n(Cc1ccc(-c3nc(C(F)(F)F)cn3C)cc1)c(=N)n2CC(F)(F)F` [Example T-054], for which the IC50 with HCC1954 (setting [1]) is at least 10000 nM; in the experiment with monoubiquitinated PCNA (setting [2]), below 100 nM; with MDA-MB-436 (setting [3]), below 100 nM; against USP1-UAF1, 30 to 100 nM.
`CN(C)c1ncccc1-c1ncc2c(n1)n(Cc1ccc(-c3nc(C(F)(F)F)cn3C)cc1)c(=N)n2C` [Example T-034]: the IC50 was at least 10000 nM in the experiment on HCC1954 (setting [1]), 250 to 10000 nM in the experiment on monoubiquitinated PCNA (setting [2]), 250 to 10000 nM with MDA-MB-436 (setting [3]) and 100 to 10000 nM at USP1-UAF1.
